Measured values as given in publication PMC6983213, “Combining Chalcones with Donepezil to Inhibit Both Cholinesterases and Aβ Fibril Assembly” (Molecules, 2019).
“Also recorded” adds a separate entry of the source. Read-outs that look alike come from different tables or passages of the source.

Tests used:
[1] = target: EeAChE (AChE from Electrophorus electricus) (Electrophorus electricus, UniProt O42275); assay: biochemical; conditions: for IC50: Ellman's method, pH 8.0, 25 °C, triplicate, ± SDEV, read-out: Inhibition (IC50) of EeAChE; for selectivity index (SI): based on IC50 values against EeAChE and EfBChE
Sequence of EeAChE (AChE from Electrophorus electricus) (O42275 24-633): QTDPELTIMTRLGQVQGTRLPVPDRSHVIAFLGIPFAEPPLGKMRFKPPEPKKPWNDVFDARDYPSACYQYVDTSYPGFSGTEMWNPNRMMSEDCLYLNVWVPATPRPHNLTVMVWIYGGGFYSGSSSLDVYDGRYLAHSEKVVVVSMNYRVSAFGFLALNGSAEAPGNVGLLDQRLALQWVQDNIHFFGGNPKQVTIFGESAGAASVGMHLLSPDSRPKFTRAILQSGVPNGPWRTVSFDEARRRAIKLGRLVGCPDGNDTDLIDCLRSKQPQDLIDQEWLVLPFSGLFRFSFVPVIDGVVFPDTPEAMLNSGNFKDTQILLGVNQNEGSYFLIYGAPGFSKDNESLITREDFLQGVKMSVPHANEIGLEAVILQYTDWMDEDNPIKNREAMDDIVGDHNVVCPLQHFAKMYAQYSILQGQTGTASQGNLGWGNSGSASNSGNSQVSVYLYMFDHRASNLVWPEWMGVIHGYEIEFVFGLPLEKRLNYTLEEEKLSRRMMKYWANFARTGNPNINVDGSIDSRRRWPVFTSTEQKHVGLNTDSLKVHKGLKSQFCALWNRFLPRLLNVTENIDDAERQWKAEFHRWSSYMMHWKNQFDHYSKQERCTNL
Experimental: (§1) The ChE inhibition assays were performed as previously described. The 1,3- and 1,4-chalcone-donepezil hybrids (0.1 nM to 100 μM) were dissolved in sodium phosphate buffer ((100 μL), 0.1 M, pH 8.0). […] All assays were performed in triplicate. The data was plotted as a sigmoidal curve and IC50 values were calculated using SigmaPlot 14.0 (Systat Software, San Jose, CA, USA).

[2] = target: EfBChE (BChE from Equus ferus) (Equus caballus, UniProt P81908); assay: biochemical; assay type: biochemical; conditions: for IC50: Ellman's method, pH 8.0, 25 °C, triplicate, ± SDEV, read-out: Inhibition (IC50) of EfBChE; for inhibition of EfBChE better than that of EeAChE: from IC50 values
Sequence of EfBChE (BChE from Equus ferus) (P81908 whole entry): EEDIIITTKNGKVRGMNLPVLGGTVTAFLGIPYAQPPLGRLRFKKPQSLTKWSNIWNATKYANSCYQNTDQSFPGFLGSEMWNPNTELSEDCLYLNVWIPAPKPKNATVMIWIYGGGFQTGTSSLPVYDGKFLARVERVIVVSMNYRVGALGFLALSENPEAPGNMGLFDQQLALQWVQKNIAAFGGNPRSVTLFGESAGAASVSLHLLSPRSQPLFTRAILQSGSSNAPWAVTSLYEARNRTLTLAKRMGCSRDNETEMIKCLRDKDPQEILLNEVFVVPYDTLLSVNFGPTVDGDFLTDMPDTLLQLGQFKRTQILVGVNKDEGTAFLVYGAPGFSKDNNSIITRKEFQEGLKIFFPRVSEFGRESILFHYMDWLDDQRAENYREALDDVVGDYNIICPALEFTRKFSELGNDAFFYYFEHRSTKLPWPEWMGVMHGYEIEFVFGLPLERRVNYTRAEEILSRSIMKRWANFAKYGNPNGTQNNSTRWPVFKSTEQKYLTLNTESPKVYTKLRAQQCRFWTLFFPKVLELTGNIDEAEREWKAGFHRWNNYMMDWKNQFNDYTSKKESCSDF
Experimental: as §1

F40 = Aβ(1–40) fibrils = target: T1, F40 = Aβ(1–40) fibrils (Homo sapiens, UniProt P05067); assay: 3H-PIB binding competition/titration, Aβ(1–40) fibrils; conditions: compounds at 10 μM (titration 10 to 0.03 μM); 1.2 nM 3H-PIB
T1 construct: lyophilized NH4OH-treated Aβ(1–40) (cat # A-1157-02); purchased rPeptide (Watkinsville, GA, USA) A-1157-02
T1 sequence (P05067 672-711): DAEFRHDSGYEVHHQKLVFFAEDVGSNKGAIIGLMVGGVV
Experimental: (§2) Prior to being transferred to screw-top polypropylene vials and being stored at −75 °C, these 1 mg/mL fibril suspensions were further diluted with an equal volume of the buffer solution.
(§3) The plates were sealed and incubated for 3 h at 22 °C, without shaking, and transferred to a 96-well Millipore Multiscreen HTS Hi Flow FB (GF/B) filter plate, and filtered with a multi-well plate vacuum manifold (Millipore Corporation, Bedford, MA, USA). […] Specific binding of ^3H-PIB was determined by subtracting the non-specific binding determined in the presence of 1 μM BTA-1.
(§4) The titration of compounds with ^3H-PIB bound to Aβ(1–40) and Aβ(1–42) fibrils and AD brain extract (ADPBC) were performed to further determine the competition of our compounds for the ^3H-PIB binding site of the AD brain. The experiments were performed as described in the ^3H-PIB binding assays of Section 3.4.3 with the use of a concentration range of 10 to 0.03 μM for the compounds tested.

F42 = Aβ(1–42) fibrils = target: T2, F42 = Aβ(1–42) fibrils (Homo sapiens, UniProt P05067); assay: 3H-PIB binding competition/titration, Aβ(1–42) fibrils; conditions: compounds at 10 μM (titration 10 to 0.03 μM); 1.2 nM 3H-PIB
T2 construct: Aβ(1–42) (cat # A-1167-02) purchased from rPeptide; purchased rPeptide (Watkinsville, GA, USA) A-1167-02
T2 sequence (P05067 672-713): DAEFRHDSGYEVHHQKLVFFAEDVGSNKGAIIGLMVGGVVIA
Experimental: as §2, §3, §4

[3] = system: ADPBC (Alzheimer's disease PIB binding complex); assay: 3H-PIB binding competition/titration, ADPBC; parameters: species or system Human; conditions: compounds at 10 μM (titration 10 to 0.03 μM); 1.2 nM 3H-PIB
Experimental: Human AD brain frontal cortical tissue (from the Sanders-Brown Center on Aging Alzheimer’s Disease Center Brain Bank at the University of Kentucky) was processed as follows.
as §3, §4

[4] = target: T3, N-biotinyl-Aβ(1–42) (bioAβ42) oligomer assembly (Homo sapiens, UniProt P05067); assay: biochemical; conditions: for bioAβ42 oligomer assembly inhibition (in words): 1.56 to 50 μM, alone or in 1:1 / 1:1:1 mixtures; for EC50: concentration range 50 to 1.56 μM, duplicate, n = 3 independent experiments, ± SDEV
T3 construct: N-biotinyl Aβ(1–42) (bioAβ42) was purchased from Anaspec; purchased Anaspec (Fremont, CA, USA) AS-23523-05
T3 sequence (P05067 672-713): as above
Experimental: We first examined the effect of the synthesized 1,3- and 1,4-chalcone-donepezil hybrids 15a–15f and 16a–16f on the assembly of N-biotinyl-Aβ(1–42) (bioAβ42) monomers into oligomers. We quantified the assembly of bioAβ42 into soluble oligomers by using an ELISA assay in which the soluble oligomers were captured on NeutrAvidin^TM-coated ELISA plates and detected with streptavidin-horseradish peroxidase and colorimetric readout (Figure 3).
The plates were then stored in their blocked form at 4 °C prior to use for the oligomer assembly and dissociation assays.
The assembly of bioAβ42 into soluble oligomers was quantified with an ELISA assay in which the soluble oligomers were captured with the NeutrAvidin^TM coating the ELISA plates. The bound oligomers were detected with streptavidin-horseradish peroxidase (SA-HRP). […] Below, please find the details of the three steps (Steps 1–3) used for the oligomer assembly assay.
Step 1: Preparation of monomeric bioAβ42. For a low background, it was essential to rigorously pretreat the bioAβ42 peptide to convert (disaggregate) the multimeric species that form upon storage in the solid state, or even frozen in 1,1,1,3,3,3-hexafluoroisopropanol (HFIP) to monomers. The required amount of stock bioAβ42 peptide (0.5 mg dissolved at 1 mg/mL in HFIP) was pipetted into a polypropylene microfuge tube, dried to a thin film under a gentle air or N2 stream, and then disaggregated for 10 min at rt in neat trifluoroacetic acid (TFA). After removal of the TFA by drying with an air or N2 stream, DMSO was added to produce a 2.3 μg/mL (50×) stock solution.
Step 2: Assembly of bioAβ42 oligomers. 2 μL of disaggregated monomeric 50× bioAβ42 peptide in DMSO (prepared in Step 1) was pipetted into the bottom of each well of a polypropylene 96-well plate. […] The 96-well plate was sealed and incubated at rt for 30 min without shaking. The bioAβ42 oligomer assembly was stopped by adding 50 μL of 0.3% Tween 20 v/v in distilled H2O.
Step 3: Measurement of bioAβ42 oligomers. […] The 96-well plate was then sealed and incubated for 2 h while shaking at 150 rpm at rt. […] The plate was sealed and incubated for 1 h while shaking at 150 rpm at rt. The plate was washed as previously described, and 100 μL/well of HRP substrate (i.e., 1 mM:0.07 mM/tetramethylbenzidine:H2O2) in 0.2 M citrate buffer, pH 4.0 was added. The plate was incubated at rt for 5 to 10 min and the reaction was stopped by the addition of 100 μL/well of 1% v/v H2SO4. The absorbance of each well was read at 450 nm with a BioTek HT Synergy plate reader.
(§5) The effects of various chalcones, donepezil, donepezil analogue, and 1,3-chalcone-donepezil hybrids were tested for their ability to inhibit the bioAβ42 oligomer assembly and dissociation either alone or in combination with each other. The experiments were performed as described in the biotinyl-Aβ(1–42) (bioAβ42) oligomer assembly and dissociation assays section.

[5] = target: T4, preformed bioAβ42 oligomers (Homo sapiens, UniProt P05067); assay: bioAβ42 oligomer dissociation assay (NeutrAvidin ELISA); assay type: biochemical; conditions: 0.01 to 50 μM; ~18 h; alone or in 1:1 / 1:1:1 mixtures
T4 construct: N-biotinyl Aβ(1–42) (bioAβ42) was purchased from Anaspec; purchased Anaspec (Fremont, CA, USA) AS-23523-05
T4 sequence (P05067 672-713): as above
Experimental: Dissociation of preformed oligomers of bioAβ42 was measured by pretreating biotinylated oligomers with solvent controls or compounds for a period of time, capturing them with NeutrAvidin^TM on ELISA plates, and detecting the remaining bound oligomers with SA-HRP [77] as described above. Below, please find the details of the two steps (Steps 1 and 2) used for the oligomer dissociation assay.
Step 1: Preformed bioAβ42 oligomers (sufficient for 400 wells). In total, 1 μg of bioAβ42 peptide (1 mg/mL dissolved in HFIP) was pipetted into 20 μL of HFIP in a polypropylene microfuge tube, and dried to a thin film under a gentle air or N2 stream. The film was dissolved in 250 μL of DMSO and vortexed. […] After incubation at rt for 1 h with intermittent vortexing, 0.375 mL of 100 mM Tween 20 (10% v/v) in distilled H2O was added to make the final Tween 20 concentration 0.3% v/v. The preformed oligomers were mixed by inversion and aliquoted for storage at −75 °C. Note: Multiple freeze-thaw cycles should be avoided.
Step 2: Oligomer dissociation assay. […] Then, 25 μL of the preformed bio42 oligomers adjusted to 0.6% v/v Tween 20 was pipetted into each well of a polypropylene 96-well plate. […] The plates were sealed and shaken at 150 rpm overnight at rt. After 18 h of incubation, the plates were centrifuged at 1000× g for 10 min and a 100-μL aliquot was transferred from each well into a well of an NA-coated ELISA plate that had been blocked with Tween 20. The oligomer content of that aliquot was measured as described for the bioAβ42 oligomer assembly assay.
as §5

[6] = read-out: EC50 against bioAβ42 oligomer assembly

Row | Compound | IC50 [1] [nM] | selectivity index (SI) [1] | IC50 [2] [nM] | inhibition of EfBChE better than that of EeAChE [2] [fold] | displacement of 3H-PIB from F40 (in words) (F40 = Aβ(1–40) fibrils) | displacement of 3H-PIB from F42 (in words) (F42 = Aβ(1–42) fibrils) | displacement of 3H-PIB from ADPBC (in words) [3] | bioAβ42 oligomer assembly inhibition (in words) [4] | EC50 ([4]; EC50 against bioAβ42 oligomer assembly) [nM] | EC50 [4, 6] [nM] | dissociation of preformed bioAβ42 oligomers (in words) [5]
1 | COc1cc2c(cc1OCCOc1cccc(C(=O)/C=C/c3ccc(N(C)C)cc3)c1)C(=O)C(CC1CCN(Cc3ccccc3)CC1)C2 (stereo not shown) [15a, (E)-2-((1-Benzylpiperidin-4-Yl)Methyl)-6-(2-(3-(3-(4-(Dimethylamino)Phenyl)Acryloyl)Phenoxy)Ethoxy)-5-Methoxy-2,3-Dihydro-1H-Inden-1-One] | 1020 ± 330 | 0.02 | 20 ± 2 | 51 | better binding to F40, F42, and ADPBC than 15c, 15d, 15e, and 15f | better binding to F40, F42, and ADPBC than 15c, 15d, 15e, and 15f | better binding to F40, F42, and ADPBC than 15c, 15d, 15e, and 15f | successful in preventing the self-assembly of bioAβ42; also recorded: better inhibition of bioAβ42 oligomer assembly | 4830 ± 470 | – | –
2 | COc1cc2c(cc1OCCCCOc1cccc(C(=O)/C=C/c3ccc(N(C)C)cc3)c1)C(=O)C(CC1CCN(Cc3ccccc3)CC1)C2 (stereo not shown) [15b, (E)-2-((1-Benzylpiperidin-4-Yl)Methyl)-6-(4-(3-(3-(4-(Dimethylamino)Phenyl)Acryloyl)Phenoxy)Butoxy)-5-Methoxy-2,3-Dihydro-1H-Inden-1-One] | 650 ± 140 | 0.05 | 30 ± 10 | 22 | better binding to F40, F42, and ADPBC than 15c, 15d, 15e, and 15f | better binding to F40, F42, and ADPBC than 15c, 15d, 15e, and 15f | better binding to F40, F42, and ADPBC than 15c, 15d, 15e, and 15f | better inhibition of bioAβ42 oligomer assembly | – | 4100 ± 170 | –
3 | COc1cc2c(cc1OCCO)C(=O)C(CC1CCN(Cc3ccccc3)CC1)C2 (stereo not shown) [compound 20, 2-((1-Benzylpiperidin-4-Yl)Methyl)-6-(2-Hydroxyethoxy)-5-Methoxy-2,3-Dihydro-1H-Inden-1-One] | – | – | – | – | – | – | – | did not inhibit bioAβ42 assembly | – | – | did not dissociate the preformed oligomers
4 | CN(C)c1ccc(/C=C/C(=O)c2cccc(OCCO)c2)cc1 [compound 17, (E)-3-(4-(Dimethylamino)Phenyl)-1-(3-(2-Hydroxyethoxy)Phenyl)Prop-2-En-1-One] | – | – | – | – | – | – | – | did not inhibit bioAβ42 assembly | – | – | did not dissociate the preformed oligomers
5 | CN(C)c1ccc(/C=C/C(=O)c2cccc(O)c2)cc1 [compound 3, (E)-3-(4-(Dimethylamino)Phenyl)-1-(3-Hydroxyphenyl)Prop-2-En-1-One] | – | – | – | – | – | – | – | did not inhibit bioAβ42 assembly | – | > 50000 | did not dissociate the preformed oligomers
